Measured values reported in article PMC9436924, “A gene cluster in Ginkgo biloba encodes unique multifunctional cytochrome P450s that initiate ginkgolide biosynthesis” (Nature Communications, 2022).

Columns and labels:
GbLPS = target: T1, GbLPS (Ginkgo biloba, UniProt Q947C4); experiment: expression in tobacco leaves, GC-MS of products; assay type: cell-based; conditions: substrate made in situ with CfDXS and CfGGPPS
T1 construct: gene LPS; transiently expressed in Nicotiana benthamiana leaves, plastidial; (in yeast a truncated, codon-optimised MBP fusion was used)
T1 sequence (Q947C4 60-873): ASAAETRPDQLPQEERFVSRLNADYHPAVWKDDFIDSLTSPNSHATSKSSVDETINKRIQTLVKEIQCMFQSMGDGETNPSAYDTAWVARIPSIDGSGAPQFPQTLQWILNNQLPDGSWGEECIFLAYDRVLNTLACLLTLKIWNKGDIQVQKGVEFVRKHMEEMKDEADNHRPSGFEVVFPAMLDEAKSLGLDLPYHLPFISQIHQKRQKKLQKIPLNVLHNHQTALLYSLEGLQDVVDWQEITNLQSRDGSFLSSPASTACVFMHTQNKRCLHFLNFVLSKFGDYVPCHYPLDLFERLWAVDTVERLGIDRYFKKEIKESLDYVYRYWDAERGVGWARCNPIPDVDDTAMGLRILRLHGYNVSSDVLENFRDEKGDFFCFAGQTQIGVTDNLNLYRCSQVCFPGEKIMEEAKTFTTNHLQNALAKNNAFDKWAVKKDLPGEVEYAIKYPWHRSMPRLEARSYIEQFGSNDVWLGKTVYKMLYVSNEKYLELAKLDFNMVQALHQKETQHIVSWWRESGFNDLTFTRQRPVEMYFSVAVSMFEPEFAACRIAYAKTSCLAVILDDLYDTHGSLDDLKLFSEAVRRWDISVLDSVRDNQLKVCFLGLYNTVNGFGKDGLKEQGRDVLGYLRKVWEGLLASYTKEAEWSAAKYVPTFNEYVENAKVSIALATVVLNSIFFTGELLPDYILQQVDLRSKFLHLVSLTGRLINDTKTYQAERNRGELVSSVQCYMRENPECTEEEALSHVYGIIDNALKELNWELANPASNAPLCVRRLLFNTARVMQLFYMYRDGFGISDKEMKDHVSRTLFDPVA

GbCYP720B31 = target: T2, GbCYP720B31 (Ginkgo biloba, UniProt Z9PDJ7KIF4); experiment: pathway co-expression in tobacco and yeast, LC-HRMS, NMR of product glucosides; assay type: cell-based; conditions: proposed substrate made in situ by upstream enzymes, free form not detected
T2 construct: G. biloba cDNA, gene on chromosome 4; expressed in Nicotiana benthamiana and Saccharomyces cerevisiae; GenBank numbers ON759313-ON759329 printed only as a collective set
T2 sequence (Z9PDJ7KIF4 1-483): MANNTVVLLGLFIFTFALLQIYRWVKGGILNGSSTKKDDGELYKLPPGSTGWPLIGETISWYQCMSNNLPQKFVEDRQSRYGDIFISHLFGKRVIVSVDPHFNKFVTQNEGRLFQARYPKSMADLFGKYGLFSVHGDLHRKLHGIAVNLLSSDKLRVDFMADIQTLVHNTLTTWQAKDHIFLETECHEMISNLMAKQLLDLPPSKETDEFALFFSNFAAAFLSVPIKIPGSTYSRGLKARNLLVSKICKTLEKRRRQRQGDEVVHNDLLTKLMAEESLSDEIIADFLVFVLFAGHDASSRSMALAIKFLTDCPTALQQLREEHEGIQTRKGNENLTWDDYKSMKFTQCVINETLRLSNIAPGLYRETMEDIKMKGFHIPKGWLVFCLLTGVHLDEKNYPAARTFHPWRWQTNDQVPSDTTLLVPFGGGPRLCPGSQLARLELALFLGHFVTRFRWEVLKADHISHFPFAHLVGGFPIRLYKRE

With `CC(C)=CCC/C(C)=C/CC/C(C)=C/CC/C(C)=C/COP(=O)(O)OP(=O)(O)O` [geranylgeranyl pyrophosphate] the “expression in tobacco leaves, GC-MS of products” value (GbLPS) was “levopimaradiene synthase (GbLPS) converts GGPP to diterpene hydrocarbon levopimaradiene”.
In the case of `CC(=CC(=O)O)C(CCc1cc(O)c(C(C)C)cc1O)C(C)(C)C` (centres unmarked) [ginkgosinoic acid C], the “pathway co-expression in tobacco and yeast, LC-HRMS, NMR of product glucosides” value (GbCYP720B31) is reported as “we propose that GbCYP720B31 hydroxylates ginkgosinoic acid C at position C20”.
